This assay deals with dermal dendritic cells. The assay can be described thus: intradermal injection into healthy human skin explants, myeloid cell activation. It is filed as cell-based. The settings on record: intra-dermal injection, overnight culture. The protocol:
FIG. 7—Peptide administration reduces spontaneous myeloid cell activation in human skin. (A) Peptide RP23 (SEQ ID NO: 12) was injected intradermally into healthy human skin grafts. Myeloid cell activation was assessed after overnight culture. (B) The effect of peptide RP23 on the spontaneous upregulation of activation markers on myeloid cell subsets in the skin. Data are representative of 6 donors.
Using an in vitro culture system, it was determined whether RP23 could suppress the activity of specific pro-inflammatory immune cells. […] The culture of murine bone marrow derived macrophages with RP23 led to reduced IL-6, MCP-1 and TNF release after LPS-stimulation (FIG. 5b). Similarly, primary human blood derived macrophages had reduced IL-6 and IL-12/23 release after stimulation with either LPS or imiquimod (FIG. 5c).

Where a SMILES comes first, the peptide text is derived from it. [ ]: non-standard residue; d: D form. AEEA = NCCOCCOCC(=O)O

Consider `CSCC[C@H](NC(=O)COCCOCCNC(=O)[C@H](CCCCN)NC(=O)[C@H](CCCCN)NC(=O)[C@H](CCCCN)NC(=O)[C@@H](N)CCCCN)C(=O)N[C@H](C(=O)N1CCC[C@H]1C(=O)NCC(=O)N[C@H](C(=O)N[C@@H](CCC(N)=O)C(=O)N[C@@H](CO)C(=O)N1CCC[C@H]1C(=O)N[C@@H](Cc1ccccc1)C(=O)N[C@@H](Cc1ccccc1)C(=O)N[C@@H](CC(C)C)C(=O)N[C@@H](CC(C)C)C(=O)N[C@@H](CC(C)C)C(=O)N[C@@H](CC(C)C)C(=O)N[C@@H](CC(C)C)C(=O)N[C@H](C(=O)N[C@H](C(=O)N[C@@H](CC(C)C)C(=O)N[C@H](C(=O)N[C@H](C(=O)N[C@H](C(=O)O)C(C)C)C(C)C)[C@@H](C)O)C(C)C)[C@@H](C)O)[C@@H](C)O)[C@@H](C)O` [RP23] (H-KKKK[AEEA]MTPGTQSPFFLLLLLTVLTVV-OH), for which the “spontaneous activation of dermal dendritic cells” value is “reduced spontaneous activation of dermal dendritic cells”.

(Values after patent publication US20230002446A1, “ANTI-INFLAMMATORY AGENTS” (The University of Sydney, priority 2019, published 2023).)
